Key:
Type in all cases: cell-based, human
[1] = tested on: p57 (KIP2); assay: Western blot of p57 in OSC2 oral carcinoma cells
Procedure: Cell treatments. For 24 hours treatments, exponentially growing cells with 40% confluency (to minimize differentiation and spontaneous apoptosis) were either maintained in 50 μM EGCG (2.29 mg/100 ml) or 0.2 mg/ml of GTPPs in tissue culture flasks (25 cm^2). Control flasks contained cells without any treatment. To test whether BaP or NNK interfere with the induction of p57, the human keratinocytes were treated with 0.12 μM BaP, or 10 μM NNK, either alone or in combination with 50 μM EGCG. To examine the time course of p57 induction, cells were treated with 50 μM EGCG and harvested for Western analysis at 30 minutes, 2 hours, 6 hours, and 24 hours. The human keratinocytes were treated when the cell density reached 85-90% confluency (to mimic the epithelium).
In a parallel series of experiments, treatment with EGCG was performed with 30 micrograms per milliliter (μg/ml) cycloheximide added to the keratinocyte media 30 minutes prior to the addition of EGCG. The dose-response experiments were performed using EGCG concentrations at 30, 50 100, and 200 μM in the culture media for 24 hours.
Western blot analysis. […] The concentration of protein in each sample was determined using the BioRad DC Protein Assay and spectrophotometry. […]

[2] = tested on: caspase 3; assay: Caspase 3 activity assay, MCF7(C) caspase 3+ cells; conditions: increasing EGCG or 0.2 mg/ml GTPPs, 24 h
Procedure: (§1) Caspase 3 activity assay. The Caspase 3 Apoptosis Detection Kit was purchased from Santa Cruz Biotech. Inc. In a 24 well tissue culture plate, 10^5 cells/well of cells in triplicates were plated. […] To each well, 100 μl of 2×reaction buffer was added with […]. Finally, 5 μl of DEVD-AFC substrate was added to each well containing cell lysates. The reaction mixtures were incubated for 1 hour at 37° C. The caspase 3 activity in each well was measured using a fluorescence microplate reader set for 405 nm excitation and 505 nm emission.

[3] = tested on: caspase 14; assay: Apoptosis macroarray, caspase 14 mRNA in NHEK
Procedure: To identify additional factors those suppress EGCG -induced apoptosis and facilitate cell differentiation in NHEK, exponentially growing NHEK (Cambrex, Baltimore, Md.) were exposed to 100 μM EGCG for 0, 2, 6 and 24 hours, prior to total RNA isolation using the Qiagen RNeasy mini kit (Valencia, Calif.), which was followed by RT-PCR labeling and hybridization with the Human Apoptosis Macroarray membrane (Sigma-Genosys, The Woodlands, Tex.). Total cell lysates also were collected following a variety of EGCG treatments. The protein levels for caspase 14 and p21 were determined by immuno-blotting using antibodies specific for caspase 14 and p21 (Santa Cruz Biotechnology, Santa Cruz, Calif.).
Normal human epidermal keratinocytes (NHEK; Cambrex), and oral squamous cell carcinoma (OSC2) cells, originally from gingival tissue, were compared. Exponentially growing cells were exposed to 50 or 100 μM EGCG for 0 hours, 2 hours, 6 hours or 24 hours. Cells were harvested for total RNA, which was examined by apoptosis macroarrays (Sigma Genosys), followed by phosphorimagery and data analysis (GeneSpring). Protein production of expressed genes was confirmed by Western blotting of whole cell lysates.

[4] = tested on: NS-SV-AC cells; assay: Mitochondrial SDH activity in immortalized salivary glandular cells; conditions: NS-SV-AC and two other immortalized salivary glandular cell lines
Procedure: MTT [3-(4,5-dimethylthiazol-2-yl)-2,5-diphenyl tetrazolium bromide] assay. […] Cells (1.5×10^4 cells/well) were seeded in a 96-well microplate and treated with the indicated doses of EGCG for 24 hours. After the treatment, the cells in each well were washed with 200 μl of phosphate-buffered saline (PBS), incubated with 100 μl of 2% MTT in a solution of 0.05 M Tris, 0.5 mM MgCl2, 2.5 mM CoCl2, and 0.25 M disodiumn succinate as substrate (Sigma) at 37° C. for 30 minutes. Cells were fixed in situ by the addition of 100 μl of 4% formalin in 0.2 M Tris (pH 7.7), and after a 5 minute incubation at room temperature liquid was removed and the wells were allowed to dry. Each well was rinsed with 200 μl water and cells were solubilized by the addition of 100 μl of 6.35% 0.1 N NaOH in DMSO. The colored formazan product was measured by a Thermo MAX micro plate reader (Molecular Devices Corp., Sunnyvale, Calif.) at a wavelength of 562 nm. Experiments were repeated three times with triplicate samples for each experiment.

[5] = tested on: OSC2 cells; assay: Cell invasion/migration assay (Transwell), OSC2 cells; conditions: 50 μM EGCG
Procedure: Cell invasion/migration assay. The invasion/migration assays were conducted using a Transwell apparatus (Costar) with 6.5 mm diameter wells and membranes of 8 μm pore size. The invasiveness at each time point was tested in DMEM/F12 medium immediately following the cell growth assay, by seeding 10^5 cells in each transwell. Cells migrated across the transwell membrane were counted as per microscopic field.

[6] = tested on: caspase 3; assay: Caspase 3 activity assay, caspase 3 null MCF7 cells; conditions: increasing EGCG or 0.2 mg/ml GTPPs, 24 h
Procedure: as §1

[7] = tested on: NHEK; assay: Light microscopy of NHEK grown alone; conditions: 100 μM EGCG, 24 hour
[8] = tested on: transglutaminase; assay: Transglutaminase activity assay, exponentially growing keratinocytes; conditions: 50 μM or 100 μM EGCG
Procedure: Transglutaminase activity assay. Normal human epidermal keratinocytes in early passages (2-3) were allowed to grow in 6-well tissue culture plates prior to EGCG exposure. The cells were scraped in homogenization buffer (0.1 M Tris/acetate, pH 8.5, containing 0.2 mM EDTA, 20 μM AEBSF, 2 μg/mL aprotinin, 2 μM leupeptin and 1 μM pepstatin A), collected by centrifugation and subjected to one freeze-thaw cycle prior to lysis by sonication. Unlysed cells were pelleted by centrifugation and aliquots of the supernatant collected for the determination of transglutaminase activity and protein concentration. Protein quantities were determined using the BioRad Protein Assay with bovine serum albumin as standard. Transglutaminase activity was measured as the incorporation of [^3 H] putrescine into dimethylated casein, as described previously (Jung et al., J Invest Dermatol, 1998; 110:318-23).

SMILES: O=C(O[C@@H]1Cc2c(O)cc(O)cc2O[C@@H]1c1cc(O)c(O)c(O)c1)c1cc(O)c(O)c(O)c1 [EGCG, (−)-epigallocatechin-3-gallate]
- p57 levels ([1]; 50 μM EGCG or 0.2 mg/ml GTPPs, 24 h): remained unchanged
- p57 expression, time course and dose response ([1]; EGCG at any time point or concentration): failed to elevate p57 expression
- caspase 3 activation [2]: demonstrated activated caspase 3
- caspase 14 gene expression upregulated ([3]; 100 μM EGCG (Example 10)): at least 2 fold
- caspase 14 mRNA expression above control ([3]; 100 μM EGCG, 24 hours): approximately three
- tolerance, mitochondrial SDH activity [4]: tolerant to high concentrations of EGCG
- cells invading the membrane, of control ([5]; 24 hours): about 30%
- cells invading the membrane, of control ([5]; 96 hours): 20%
- caspase 3 activity [6]: did not show caspase 3 activity
- cell death [7]: showed no cell death
- transglutaminase activity vs control [8]: significantly higher activity

Reference: patent US20040191842A1, “Chemopreventive and therapeutic aspects of polyphenolic compositions and assays” (Medical College of Georgia Research Institute, Inc., priority 2002, published 2004)
